Paper PMC7430049 (Journal of medicinal chemistry, 2019)

Key:
human recombinant G9a [1] = molecular target: T1, human recombinant G9a (Homo sapiens, UniProt Q96KQ7); test: G9a inhibition, peptide-based AlphaLISA assay; assay type: biochemical; conditions: for Hill slope of the concentration–response inhibition curve of G9a: AlphaLISA, four-parameter fit; for fold reduction of G9a inhibitory activity compared to 12a: relative to 12a, from Table 1 IC50
T1 sequence (Q96KQ7 1-1210): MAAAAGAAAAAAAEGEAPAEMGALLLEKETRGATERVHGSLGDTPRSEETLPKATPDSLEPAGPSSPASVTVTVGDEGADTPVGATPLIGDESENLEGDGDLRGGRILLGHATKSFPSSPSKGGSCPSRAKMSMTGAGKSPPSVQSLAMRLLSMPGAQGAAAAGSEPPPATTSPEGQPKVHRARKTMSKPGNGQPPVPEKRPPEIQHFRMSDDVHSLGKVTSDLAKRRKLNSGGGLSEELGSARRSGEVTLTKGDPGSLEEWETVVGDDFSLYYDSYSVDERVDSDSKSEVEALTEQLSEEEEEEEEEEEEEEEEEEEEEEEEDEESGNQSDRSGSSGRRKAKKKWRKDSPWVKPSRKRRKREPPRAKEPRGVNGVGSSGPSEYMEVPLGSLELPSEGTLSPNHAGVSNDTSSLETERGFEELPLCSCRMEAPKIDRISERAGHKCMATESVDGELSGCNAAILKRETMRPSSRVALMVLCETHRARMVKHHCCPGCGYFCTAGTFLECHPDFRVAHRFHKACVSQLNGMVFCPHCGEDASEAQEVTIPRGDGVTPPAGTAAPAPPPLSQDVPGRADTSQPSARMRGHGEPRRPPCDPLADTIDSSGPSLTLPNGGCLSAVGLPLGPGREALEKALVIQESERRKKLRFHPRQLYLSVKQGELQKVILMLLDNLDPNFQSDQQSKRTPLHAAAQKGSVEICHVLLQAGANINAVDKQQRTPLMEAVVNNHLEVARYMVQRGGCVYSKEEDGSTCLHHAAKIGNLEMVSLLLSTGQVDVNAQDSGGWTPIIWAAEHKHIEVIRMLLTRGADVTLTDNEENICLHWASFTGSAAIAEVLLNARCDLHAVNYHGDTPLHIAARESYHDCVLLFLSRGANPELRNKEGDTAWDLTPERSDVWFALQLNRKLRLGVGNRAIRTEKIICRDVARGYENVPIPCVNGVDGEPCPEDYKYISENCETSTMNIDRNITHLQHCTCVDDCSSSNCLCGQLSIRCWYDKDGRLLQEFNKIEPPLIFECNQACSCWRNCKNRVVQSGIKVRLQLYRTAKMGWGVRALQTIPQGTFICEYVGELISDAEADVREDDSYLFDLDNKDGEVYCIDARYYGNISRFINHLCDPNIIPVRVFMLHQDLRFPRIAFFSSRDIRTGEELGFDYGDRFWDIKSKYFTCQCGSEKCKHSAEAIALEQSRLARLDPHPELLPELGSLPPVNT

human recombinant KDM4A = molecular target: T2, human recombinant KDM4A (Homo sapiens, UniProt O75164); test: KDM4A/JMJD2A inhibition, AlphaLISA assay; assay type: biochemical; conditions: tested at 10 and 25 μM
T2 sequence (O75164 1-1064): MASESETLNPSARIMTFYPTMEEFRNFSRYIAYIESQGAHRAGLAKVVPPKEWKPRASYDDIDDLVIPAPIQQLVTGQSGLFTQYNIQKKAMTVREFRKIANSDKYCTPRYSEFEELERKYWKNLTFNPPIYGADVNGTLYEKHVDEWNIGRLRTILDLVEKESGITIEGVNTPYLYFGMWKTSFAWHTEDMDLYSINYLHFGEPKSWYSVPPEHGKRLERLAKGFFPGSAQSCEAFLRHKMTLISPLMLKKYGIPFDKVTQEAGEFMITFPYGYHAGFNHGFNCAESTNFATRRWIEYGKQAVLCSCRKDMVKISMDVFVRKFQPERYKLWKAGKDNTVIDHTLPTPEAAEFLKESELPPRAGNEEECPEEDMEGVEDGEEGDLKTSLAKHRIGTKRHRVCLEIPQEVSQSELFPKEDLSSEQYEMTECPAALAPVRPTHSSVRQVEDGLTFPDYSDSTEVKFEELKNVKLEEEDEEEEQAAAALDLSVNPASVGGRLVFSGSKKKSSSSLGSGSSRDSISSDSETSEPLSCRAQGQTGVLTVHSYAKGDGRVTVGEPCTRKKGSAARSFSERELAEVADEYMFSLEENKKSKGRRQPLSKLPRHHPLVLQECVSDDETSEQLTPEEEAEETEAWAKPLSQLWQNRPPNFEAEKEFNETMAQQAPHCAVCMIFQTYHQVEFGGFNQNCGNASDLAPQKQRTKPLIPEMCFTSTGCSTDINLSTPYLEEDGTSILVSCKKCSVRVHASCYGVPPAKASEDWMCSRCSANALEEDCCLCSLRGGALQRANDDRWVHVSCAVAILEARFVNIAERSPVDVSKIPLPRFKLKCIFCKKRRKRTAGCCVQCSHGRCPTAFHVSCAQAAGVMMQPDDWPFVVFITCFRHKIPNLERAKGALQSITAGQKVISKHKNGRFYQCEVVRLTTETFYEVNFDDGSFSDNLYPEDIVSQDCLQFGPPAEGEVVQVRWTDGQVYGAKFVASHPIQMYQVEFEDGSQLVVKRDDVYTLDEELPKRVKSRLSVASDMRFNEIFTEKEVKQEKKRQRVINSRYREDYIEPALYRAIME

human recombinant PRMT1 = human recombinant PRMT1 (Homo sapiens, UniProt Q99873); test: PRMT1 inhibition, AlphaLISA assay; assay type: biochemical; conditions: tested at 10 and 25 μM
human recombinant PRMT3 = human recombinant PRMT3 (Homo sapiens, UniProt O60678); test: PRMT3 inhibition, AlphaLISA assay; assay type: biochemical; conditions: tested at 10 and 25 μM
human recombinant p300 = human recombinant p300 (Homo sapiens, UniProt Q09472); test: KAT3B/p300 inhibition, AlphaLISA assay; assay type: biochemical; conditions: tested at 10 and 25 μM
human DNMT3a = human DNMT3a (Homo sapiens, UniProt Q9Y6K1); test: HotSpot DNMT activity assay; assay type: biochemical; conditions: lambda DNA substrate
[2] = molecular target: full-length human recombinant DNMT3b (Homo sapiens, UniProt Q9UBC3); test: HotSpot DNMT activity assay; assay type: biochemical; conditions: lambda DNA substrate
G9a [3] = molecular target: T3, G9a (Homo sapiens, UniProt Q96KQ7); test: Surface plasmon resonance; assay type: binding
T3 sequence (Q96KQ7 913-1193 limits assumed): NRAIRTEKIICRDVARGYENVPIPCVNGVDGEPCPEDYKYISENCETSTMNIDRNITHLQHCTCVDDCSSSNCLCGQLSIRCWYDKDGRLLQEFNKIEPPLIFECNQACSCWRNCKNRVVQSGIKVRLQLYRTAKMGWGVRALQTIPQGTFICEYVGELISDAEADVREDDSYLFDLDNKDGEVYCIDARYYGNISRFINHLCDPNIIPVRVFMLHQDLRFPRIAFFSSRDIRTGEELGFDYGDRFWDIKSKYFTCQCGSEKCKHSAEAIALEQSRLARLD

human recombinant G9a [4] = molecular target: T1, human recombinant G9a; test: Mechanism of action kinetics, AlphaLISA G9a assay, Lineweaver-Burk plots; assay type: biochemical; conditions: fixed H3 peptide 100 nM, varying SAM
[5] = Chemical stability in PBS, HPLC analysis; assay type: physicochemical; conditions: exposure to PBS over 72 h
MCF-7 cells = test: MTT cell viability assay, MCF-7; assay type: cell-based, human; conditions: 0.05–50 μM; 24, 48, 72 h
MDA-MB-231 cells = test: MTT cell viability assay, MDA-MB-231; assay type: cell-based, human; conditions: up to 5 μM, even after 72 h, vs vehicle
U-343 cells = test: MTT cell viability assay, U-343; assay type: cell-based, human; conditions: up to 5 μM, even after 72 h, vs vehicle
[6] = test system: H3K9me2 levels in MCF-7 cells; test: Western blot of H3K9me2 in histone extracts, MCF-7; assay type: cell-based, human; conditions: 0.5 and 5 μM, 48 and 72 h
[7] = test system: H3K9me2 levels in MDA-MB-231 cells; test: Western blot of H3K9me2 in histone extracts, MDA-MB-231; assay type: cell-based, human; conditions: 0.5 and 5 μM, 48 and 72 h
[8] = test system: H3K9me2 levels in U-343 cells; test: Western blot of H3K9me2 in histone extracts, U-343; assay type: cell-based, human; conditions: 0.5 and 5 μM, 48 and 72 h
GLP over G9a = conditions: biochemical assays; cited from earlier work
[9] = Parallel artificial membrane permeability assay; assay type: in vitro ADME; conditions: PAMPA, pH 7.4
[10] = test system: other lysine and arginine methyltransferases; conditions: up to a 10 μM concentration; cited from earlier work
in vitro = conditions: PAMPA, pH 7.4
[11] = test system: lysine N-methyltransferase SUV39H1(H320R); conditions: up to a 10 μM concentration; cited from earlier work
[12] = test system: protein arginine methyltransferase 1 (PRMT1); conditions: up to a 10 μM concentration; cited from earlier work
G9a [13] = molecular target: T3, G9a; conditions: read-out: Morrison Ki, G9a; cited from earlier work
G9a [14] = molecular target: T3, G9a; conditions: read-out: G9a IC50 (ECSD assay); ECSD assays; cited from earlier work

Chain of human recombinant p300 (Q09472 whole entry): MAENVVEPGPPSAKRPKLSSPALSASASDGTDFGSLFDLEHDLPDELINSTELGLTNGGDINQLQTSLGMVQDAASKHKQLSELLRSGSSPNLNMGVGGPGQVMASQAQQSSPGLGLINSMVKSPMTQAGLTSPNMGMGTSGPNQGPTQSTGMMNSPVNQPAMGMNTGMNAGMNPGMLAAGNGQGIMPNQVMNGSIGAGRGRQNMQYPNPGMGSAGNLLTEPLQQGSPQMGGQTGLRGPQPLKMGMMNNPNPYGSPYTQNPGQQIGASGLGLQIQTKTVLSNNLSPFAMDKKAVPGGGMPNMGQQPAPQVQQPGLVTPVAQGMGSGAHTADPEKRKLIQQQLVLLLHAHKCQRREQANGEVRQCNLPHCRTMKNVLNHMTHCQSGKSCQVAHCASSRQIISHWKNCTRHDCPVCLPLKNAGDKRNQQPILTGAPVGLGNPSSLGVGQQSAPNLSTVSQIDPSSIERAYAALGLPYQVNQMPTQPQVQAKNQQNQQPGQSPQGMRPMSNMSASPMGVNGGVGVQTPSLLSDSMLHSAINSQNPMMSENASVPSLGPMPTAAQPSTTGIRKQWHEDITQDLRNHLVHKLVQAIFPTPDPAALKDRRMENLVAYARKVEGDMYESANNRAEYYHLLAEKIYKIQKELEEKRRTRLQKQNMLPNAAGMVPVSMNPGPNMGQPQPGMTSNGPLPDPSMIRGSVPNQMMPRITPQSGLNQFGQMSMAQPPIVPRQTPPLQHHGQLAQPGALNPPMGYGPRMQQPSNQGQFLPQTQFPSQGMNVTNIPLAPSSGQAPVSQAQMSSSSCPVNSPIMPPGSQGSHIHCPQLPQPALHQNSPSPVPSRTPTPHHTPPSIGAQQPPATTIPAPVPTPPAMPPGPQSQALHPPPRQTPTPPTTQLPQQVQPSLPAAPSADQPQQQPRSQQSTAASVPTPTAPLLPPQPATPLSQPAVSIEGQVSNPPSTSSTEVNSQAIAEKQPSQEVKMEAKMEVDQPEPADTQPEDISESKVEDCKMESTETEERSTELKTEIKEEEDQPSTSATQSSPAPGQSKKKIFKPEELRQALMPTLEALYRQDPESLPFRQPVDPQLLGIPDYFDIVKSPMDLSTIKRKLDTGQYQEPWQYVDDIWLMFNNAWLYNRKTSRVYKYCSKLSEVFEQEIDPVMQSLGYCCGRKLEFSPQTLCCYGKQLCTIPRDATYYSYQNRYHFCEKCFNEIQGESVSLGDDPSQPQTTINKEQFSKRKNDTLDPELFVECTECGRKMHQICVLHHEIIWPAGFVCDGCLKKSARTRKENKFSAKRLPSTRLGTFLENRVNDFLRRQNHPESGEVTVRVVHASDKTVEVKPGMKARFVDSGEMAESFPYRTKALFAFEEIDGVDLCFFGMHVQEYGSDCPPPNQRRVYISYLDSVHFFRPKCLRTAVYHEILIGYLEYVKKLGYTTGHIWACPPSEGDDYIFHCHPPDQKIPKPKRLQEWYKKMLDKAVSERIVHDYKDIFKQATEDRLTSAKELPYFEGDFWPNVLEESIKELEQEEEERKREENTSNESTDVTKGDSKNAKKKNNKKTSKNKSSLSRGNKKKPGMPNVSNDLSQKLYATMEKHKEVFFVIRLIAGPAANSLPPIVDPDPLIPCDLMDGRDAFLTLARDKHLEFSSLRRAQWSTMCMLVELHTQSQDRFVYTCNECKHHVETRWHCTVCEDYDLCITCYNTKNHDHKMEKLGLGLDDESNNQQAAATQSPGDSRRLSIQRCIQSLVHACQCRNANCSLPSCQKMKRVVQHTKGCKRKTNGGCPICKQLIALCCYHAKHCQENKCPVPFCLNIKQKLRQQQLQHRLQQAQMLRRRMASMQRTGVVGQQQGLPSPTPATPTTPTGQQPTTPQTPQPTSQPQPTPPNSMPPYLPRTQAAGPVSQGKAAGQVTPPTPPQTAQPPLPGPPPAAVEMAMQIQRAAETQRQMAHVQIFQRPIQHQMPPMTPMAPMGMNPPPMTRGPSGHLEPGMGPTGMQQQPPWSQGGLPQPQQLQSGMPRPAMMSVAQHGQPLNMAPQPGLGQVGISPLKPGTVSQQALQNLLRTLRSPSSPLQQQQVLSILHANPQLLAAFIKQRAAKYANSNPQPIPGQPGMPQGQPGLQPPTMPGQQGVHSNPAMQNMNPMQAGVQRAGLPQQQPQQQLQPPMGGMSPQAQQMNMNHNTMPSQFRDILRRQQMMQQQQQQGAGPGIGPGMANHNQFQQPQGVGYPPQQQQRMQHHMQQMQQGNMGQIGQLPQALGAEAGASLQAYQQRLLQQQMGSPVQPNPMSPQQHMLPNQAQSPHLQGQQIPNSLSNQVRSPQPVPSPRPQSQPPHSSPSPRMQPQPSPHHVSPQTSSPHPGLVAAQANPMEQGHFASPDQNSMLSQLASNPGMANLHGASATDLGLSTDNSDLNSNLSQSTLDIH
Chain of human DNMT3a (Q9Y6K1 2-912 limits assumed): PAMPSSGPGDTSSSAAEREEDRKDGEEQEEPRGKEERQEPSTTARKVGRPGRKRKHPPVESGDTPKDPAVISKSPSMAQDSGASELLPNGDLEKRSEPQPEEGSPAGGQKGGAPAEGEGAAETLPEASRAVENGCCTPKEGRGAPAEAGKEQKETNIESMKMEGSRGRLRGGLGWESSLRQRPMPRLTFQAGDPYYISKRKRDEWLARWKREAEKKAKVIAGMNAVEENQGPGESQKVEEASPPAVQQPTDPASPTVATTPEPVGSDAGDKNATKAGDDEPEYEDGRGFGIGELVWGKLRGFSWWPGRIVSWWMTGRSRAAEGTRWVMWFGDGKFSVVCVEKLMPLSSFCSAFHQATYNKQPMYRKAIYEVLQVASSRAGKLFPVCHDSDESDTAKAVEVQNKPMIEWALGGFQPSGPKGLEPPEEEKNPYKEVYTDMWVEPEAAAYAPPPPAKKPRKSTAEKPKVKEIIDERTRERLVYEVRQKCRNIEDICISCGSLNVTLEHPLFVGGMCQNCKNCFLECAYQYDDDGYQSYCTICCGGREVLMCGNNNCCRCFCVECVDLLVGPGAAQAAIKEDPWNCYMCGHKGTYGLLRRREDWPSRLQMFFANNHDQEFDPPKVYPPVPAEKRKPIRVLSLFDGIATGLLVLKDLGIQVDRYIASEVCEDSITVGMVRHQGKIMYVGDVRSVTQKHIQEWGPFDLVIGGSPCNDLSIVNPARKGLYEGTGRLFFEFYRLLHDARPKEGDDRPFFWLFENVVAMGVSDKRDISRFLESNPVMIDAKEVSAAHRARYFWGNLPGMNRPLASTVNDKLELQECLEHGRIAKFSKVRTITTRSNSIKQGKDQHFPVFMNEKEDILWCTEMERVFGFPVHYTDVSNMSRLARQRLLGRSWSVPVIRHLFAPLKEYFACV
Chain of human recombinant PRMT1 (Q99873 whole entry): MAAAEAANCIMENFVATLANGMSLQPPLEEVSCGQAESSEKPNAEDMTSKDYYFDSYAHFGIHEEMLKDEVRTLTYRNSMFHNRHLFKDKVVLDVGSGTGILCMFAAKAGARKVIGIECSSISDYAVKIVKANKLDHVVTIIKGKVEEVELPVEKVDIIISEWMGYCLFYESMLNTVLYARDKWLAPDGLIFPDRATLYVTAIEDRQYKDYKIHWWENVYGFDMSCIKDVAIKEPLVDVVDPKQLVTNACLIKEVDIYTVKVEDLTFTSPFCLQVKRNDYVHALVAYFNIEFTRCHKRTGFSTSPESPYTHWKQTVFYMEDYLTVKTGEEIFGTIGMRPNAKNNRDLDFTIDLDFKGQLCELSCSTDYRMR
Chain of human recombinant PRMT3 (O60678 whole entry): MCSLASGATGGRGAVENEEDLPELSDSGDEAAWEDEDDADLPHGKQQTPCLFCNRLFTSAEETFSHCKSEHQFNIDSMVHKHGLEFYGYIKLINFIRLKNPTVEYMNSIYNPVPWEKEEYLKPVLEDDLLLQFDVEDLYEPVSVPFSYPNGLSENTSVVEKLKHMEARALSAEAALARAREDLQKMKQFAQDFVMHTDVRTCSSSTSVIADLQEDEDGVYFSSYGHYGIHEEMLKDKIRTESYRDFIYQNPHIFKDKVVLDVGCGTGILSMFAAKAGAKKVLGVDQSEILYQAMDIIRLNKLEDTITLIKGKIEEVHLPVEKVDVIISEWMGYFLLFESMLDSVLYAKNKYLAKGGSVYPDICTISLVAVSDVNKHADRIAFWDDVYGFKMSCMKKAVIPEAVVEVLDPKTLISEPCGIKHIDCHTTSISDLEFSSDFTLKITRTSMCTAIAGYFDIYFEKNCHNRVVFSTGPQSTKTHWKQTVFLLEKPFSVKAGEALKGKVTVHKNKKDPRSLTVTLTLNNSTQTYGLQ

COc1cc2c(cc1OCCCN1CCCC1)N=C(C1CCCCC1)CN=C2NC1CCN(C(C)C)CC1 [12a, 2-Cyclohexyl-N-(1-isopropylpiperidin-4-yl)-7-methoxy-8-(3-(pyrrolidin-1-yl)propoxy)-3H-benzo[e][1,4]diazepin-5-amine]
Hill slope of the concentration–response inhibition curve of G9a (human recombinant G9a [1]): −2.7 | JMJD2A inhibition (in words) (human recombinant KDM4A): only poorly (or not at all) inhibited | PRMT1 inhibition (in words) (human recombinant PRMT1): only poorly (or not at all) inhibited | PRMT3 inhibition (in words) (human recombinant PRMT3): only poorly (or not at all) inhibited | p300 inhibition (in words) (human recombinant p300): only poorly (or not at all) inhibited | DNMT3a inhibition (in words) (human DNMT3a): inactive | DNMT3b inhibition (in words) [2]: inactive | Kd (G9a [3]): 63800 ± 950 nM | α Ki, noncompetitive against SAM (human recombinant G9a [4]): 1.1 ± 0.2 nM | chemical stability (HPLC) [5]: did not decompose | cell toxicity (MTT), MCF-7 (MCF-7 cells): slight progressive increase of toxicity after 48 and 72 h | cell toxicity (MTT), MDA-MB-231 (MDA-MB-231 cells): did not significantly reduce the number of metabolically active MDA-MB-231 or U-343 cells | cell toxicity (MTT), U-343 (U-343 cells): did not significantly reduce the number of metabolically active MDA-MB-231 or U-343 cells | dimethylation of lysine H3K9 (H3K9me2), MCF-7 [6]: marked and both concentration- and time-dependent reduction | dimethylation of lysine H3K9 (H3K9me2), MDA-MB-231 [7]: marked and both concentration- and time-dependent reduction | dimethylation of lysine H3K9 (H3K9me2), U-343 [8]: marked and both concentration- and time-dependent reduction

CCCCCCNc1nc(NC2CCN(C)CC2)c2cc(OC)c(OC)cc2n1 [compound 9]
selectivity for GLP over G9a (GLP over G9a): > 140 fold

COc1cc2c(cc1OCCCN1CCCC1)N=C(c1ccccc1)CN=C2NC1CCN(C(C)C)CC1 [12b, N-(1-Isopropylpiperidin-4-yl)-7-methoxy-2-phenyl-8-(3-(pyrrolidin-1-yl)propoxy)-3H-benzo[e][1,4]diazepin-5-amine]
fold reduction of G9a inhibitory activity compared to 12a (human recombinant G9a [1]): approximately 50 fold

COc1cc2c(NC3CCN(C(C)C)CC3)nc(C3CCCCC3)nc2cc1OCCCN1CCCC1 [compound 7]
Hill slope of the concentration–response inhibition curve of G9a (human recombinant G9a [1]): −1.3 | Papp at 24 h, 0.2 mM [9]: 0.049 ×10⁻⁶ cm/s | activity against other lysine and arginine methyltransferases [10]: inactive | Papp at 24 h, 0.2 mM (in vitro): 0.019 ×10⁻⁶ cm/s

COc1cc2nc(N3CCCN(C)CC3)nc(NC3CCN(Cc4ccccc4)CC3)c2cc1OC [compound 3]
activity against SUV39H1(H320R) [11]: basically inactive | activity against PRMT1 [12]: basically inactive

COc1cc2c(cc1OCCCN1CCCC1)NC(C1CCCCC1)CN=C2NC1CCN(C(C)C)CC1 (centres unmarked) [13a, 2-Cydohexyl-N-(1-isopropylpiperidin-4-yl)-7-methoxy-8-(3-(pyrrolidin-1-yl)propoxy)-2,3-dihydro-1H-benzo[e][1,4]-diazepin-5-amine]
fold reduction of G9a inhibitory activity compared to 12a (human recombinant G9a [1]): approximately 50 fold

COc1cc2c(cc1OCCCN1CCCC1)N=C(C1CCCCC1)CC(NC1CCN(C(C)C)CC1)=N2 [compound 14, 4-Cyclohexyl-N-(1-isopropylpiperidin-4-yl)-8-methoxy-7-(3-(pyrrolidin-1-yl)propoxy)-3H-benzo[b][1,4]diazepin-2-amine]
fold reduction of G9a inhibitory activity compared to 12a (human recombinant G9a [1]): 130 fold

COc1cc2c(cc1OCCCN1CCCC1)NC(c1ccccc1)CN=C2NC1CCN(C(C)C)CC1 (centres unmarked) [13b, N-(1-Isopropylpiperidin-4-yl)-7-methoxy-2-phenyl-8-(3-(pyrrolidin-1-yl)propoxy)-2,3-dihydro-1H-benzo[e][1,4]-diazepin-5-amine]
fold reduction of G9a inhibitory activity compared to 12a (human recombinant G9a [1]): 100 fold

COc1cc2c(NC3CCN(C)CC3)nc(N3CCCN(C)CC3)nc2cc1OCCOCCN(C)C [compound 5]
Ki (G9a [13]): 0.063 nM | IC50 (G9a [14]): 9 nM
